In publication PMC4515429, “Anti-Biofilm and Immunomodulatory Activities of Peptides That Inhibit Biofilms Formed by Pathogens Isolated from Cystic Fibrosis Patients” (Antibiotics, 2014):
Several values for one entry are separate records, joined by “and”; a condition that tells them apart may be missing. Identical values can stand only once. Where no end group is shown, it is not given here.

Legend:
[1] = tested on: B. cenocepacia 4813 (IIIa); conditions: planktonic cells; broth microdilution, BHI, 5 × 10^5 CFU/mL, 37 °C, 18 h; performed at least three times
Method: (§1) In addition to the wild type lab isolates Pseudomonas aeruginosa strains PAO1 and PA14, a variety of cystic fibrosis clinical isolates of P. aeruginosa and Burkholderia cepacia complex strains were utilized (Table 1). Planktonic cells from each of the P. aeruginosa and B. cepacia strains were grown in BM2 glucose or cation-adjusted Mueller-Hinton. The minimal inhibitory concentration (MIC) for peptides in brain-heart infusion (BHI) was assessed by the broth microdilution method with minor modifications for cationic peptides. […] MIC assays were performed in sterile 96-well polypropylene microtiter plates. […] The plates were incubated at 37 °C for 18 h.

[2] = tested on: P. aeruginosa C2773 (Classic); conditions: planktonic cells; broth microdilution, BHI, 5 × 10^5 CFU/mL, 37 °C, 18 h; performed at least three times
Method: as §1

[3] = tested on: B. dolosa CEP0021 (VI); conditions: planktonic cells; broth microdilution, BHI, 5 × 10^5 CFU/mL, 37 °C, 18 h; performed at least three times
Method: as §1

[4] = tested on: P. aeruginosa 7633 (Entire); conditions: planktonic cells; broth microdilution, BHI, 5 × 10^5 CFU/mL, 37 °C, 18 h; performed at least three times
Method: as §1

[5] = tested on: P. aeruginosa C4276 (Classic); conditions: planktonic cells; broth microdilution, BHI, 5 × 10^5 CFU/mL, 37 °C, 18 h; performed at least three times
Method: as §1

[6] = tested on: B. stabilis C6061 (IV); conditions: planktonic cells; broth microdilution, BHI, 5 × 10^5 CFU/mL, 37 °C, 18 h; performed at least three times
Method: as §1

[7] = tested on: B. ambifaria CEP0996 (VII); conditions: planktonic cells; broth microdilution, BHI, 5 × 10^5 CFU/mL, 37 °C, 18 h; performed at least three times
Method: as §1

[8] = tested on: P. aeruginosa 7632 (Classic); conditions: planktonic cells; broth microdilution, BHI, 5 × 10^5 CFU/mL, 37 °C, 18 h; performed at least three times
Method: as §1

[9] = tested on: P. aeruginosa 4608 (Mucoid); conditions: planktonic cells; broth microdilution, BHI, 5 × 10^5 CFU/mL, 37 °C, 18 h; performed at least three times
Method: as §1

[10] = tested on: P. aeruginosa 3330 (Classic); conditions: planktonic cells; broth microdilution, BHI, 5 × 10^5 CFU/mL, 37 °C, 18 h; performed at least three times
Method: as §1

[11] = tested on: P. aeruginosa PA01; conditions: planktonic cells; broth microdilution, BHI, 5 × 10^5 CFU/mL, 37 °C, 18 h; performed at least three times
Method: as §1

[12] = tested on: P. aeruginosa 4020 (Classic); conditions: planktonic cells; broth microdilution, BHI, 5 × 10^5 CFU/mL, 37 °C, 18 h; performed at least three times
Method: as §1

[13] = tested on: P. aeruginosa 2955 (Dwarf); conditions: planktonic cells; broth microdilution, BHI, 5 × 10^5 CFU/mL, 37 °C, 18 h; performed at least three times
Method: as §1

[14] = tested on: B. cenocepacia CEP509 (IIIb); conditions: planktonic cells; broth microdilution, BHI, 5 × 10^5 CFU/mL, 37 °C, 18 h; performed at least three times
Method: as §1

[15] = tested on: P. aeruginosa 2631 (Classic); conditions: planktonic cells; broth microdilution, BHI, 5 × 10^5 CFU/mL, 37 °C, 18 h; performed at least three times
Method: as §1

[16] = tested on: B. cenocepacia C5424 (IIIa); conditions: planktonic cells; broth microdilution, BHI, 5 × 10^5 CFU/mL, 37 °C, 18 h; performed at least three times
Method: as §1

[17] = tested on: B. cenocepacia CEP0055 (IIIb); conditions: planktonic cells; broth microdilution, BHI, 5 × 10^5 CFU/mL, 37 °C, 18 h; performed at least three times
Method: as §1

[18] = tested on: P. aeruginosa PA14; conditions: planktonic cells; broth microdilution, BHI, 5 × 10^5 CFU/mL, 37 °C, 18 h; performed at least three times
Method: as §1

[19] = tested on: P. aeruginosa 2639 (Mucoid); conditions: planktonic cells; broth microdilution, BHI, 5 × 10^5 CFU/mL, 37 °C, 18 h; performed at least three times
Method: as §1

[20] = tested on: P. aeruginosa 3195 (Classic); conditions: planktonic cells; broth microdilution, BHI, 5 × 10^5 CFU/mL, 37 °C, 18 h; performed at least three times
Method: as §1

[21] = tested on: P. aeruginosa 1172 (Classic); conditions: planktonic cells; broth microdilution, BHI, 5 × 10^5 CFU/mL, 37 °C, 18 h; performed at least three times
Method: as §1

[22] = tested on: P. aeruginosa C4278 (Mucoid); conditions: planktonic cells; broth microdilution, BHI, 5 × 10^5 CFU/mL, 37 °C, 18 h; performed at least three times
Method: as §1

[23] = tested on: B. multivorans D2661 (Genomovar II); conditions: planktonic cells; broth microdilution, BHI, 5 × 10^5 CFU/mL, 37 °C, 18 h; performed at least three times
Method: as §1

[24] = tested on: B. cenocepacia 4813 (IIIa); conditions: polypropylene 96-well plate, BM2 glucose, 22 h, 37 °C, crystal violet, absorbance 595, at least two independent experiments
Method: (§2) To assess the biofilm-forming ability of the different clinical isolates, dilutions (1/100) of overnight cultures were incubated in 96-well polypropylene plates using BM2 glucose medium, as previously described.
(§3) Biofilm formation was initially analyzed using a static abiotic solid surface assay as described elsewhere. Dilutions (1/100) of overnight cultures were incubated in BM2 glucose medium (62 mM potassium phosphate buffer (pH 7), 7 mM (NH4)2SO4, 2 mM MgSO4, 10 μM FeSO4, 0.4% (wt/vol) glucose, 0.5% (wt/vol) Casamino Acids) in polypropylene microtiter plates (Fisher Scientific, Waltham, MA, USA) in the presence of the different peptides for 22 h at 37 °C. Planktonic cells were removed and biofilm cells adhering to the side of the tubes were stained with crystal violet, extracted into ethanol, and the optical density at 595 nm (OD595) measured using a microtiter plate reader (Bio-Tek Instruments Inc., Winooski, VT, USA). Peptides were added at time zero (prior to adding the diluted, overnight cultures) at various concentrations, and the decrease in biofilm formation was recorded at 22 h for P. aeruginosa, Burkholderia and Methicillin-resistant Staphylococcus aureus isolates.

[25] = tested on: B. dolosa CEP0021 (VI); conditions: polypropylene 96-well plate, BM2 glucose, 22 h, 37 °C, crystal violet, absorbance 595, at least two independent experiments
Method: as §2, §3

[26] = tested on: P. aeruginosa 7633 (Entire); conditions: polypropylene 96-well plate, BM2 glucose, 22 h, 37 °C, crystal violet, absorbance 595, at least two independent experiments
Method: as §2, §3

[27] = tested on: B. stabilis C6061 (IV); conditions: polypropylene 96-well plate, BM2 glucose, 22 h, 37 °C, crystal violet, absorbance 595, at least two independent experiments
Method: as §2, §3

[28] = tested on: B. ambifaria CEP0996 (VII); conditions: polypropylene 96-well plate, BM2 glucose, 22 h, 37 °C, crystal violet, absorbance 595, at least two independent experiments
Method: as §2, §3

[29] = tested on: P. aeruginosa 7632 (Classic); conditions: polypropylene 96-well plate, BM2 glucose, 22 h, 37 °C, crystal violet, absorbance 595, at least two independent experiments
Method: as §2, §3

[30] = tested on: P. aeruginosa 3330 (Classic); conditions: polypropylene 96-well plate, BM2 glucose, 22 h, 37 °C, crystal violet, absorbance 595, at least two independent experiments
Method: as §2, §3

[31] = tested on: P. aeruginosa PA01; conditions: polypropylene 96-well plate, BM2 glucose, 22 h, 37 °C, crystal violet, absorbance 595, at least two independent experiments
Method: as §2, §3

[32] = tested on: P. aeruginosa 2955 (Dwarf); conditions: polypropylene 96-well plate, BM2 glucose, 22 h, 37 °C, crystal violet, absorbance 595, at least two independent experiments
Method: as §2, §3

[33] = tested on: B. cenocepacia CEP509 (IIIb); conditions: polypropylene 96-well plate, BM2 glucose, 22 h, 37 °C, crystal violet, absorbance 595, at least two independent experiments
Method: as §2, §3

[34] = tested on: P. aeruginosa 2631 (Classic); conditions: polypropylene 96-well plate, BM2 glucose, 22 h, 37 °C, crystal violet, absorbance 595, at least two independent experiments
Method: as §2, §3

[35] = tested on: B. cenocepacia C5424 (IIIa); conditions: polypropylene 96-well plate, BM2 glucose, 22 h, 37 °C, crystal violet, absorbance 595, at least two independent experiments
Method: as §2, §3

[36] = tested on: B. cenocepacia CEP0055 (IIIb); conditions: polypropylene 96-well plate, BM2 glucose, 22 h, 37 °C, crystal violet, absorbance 595, at least two independent experiments
Method: as §2, §3

[37] = tested on: P. aeruginosa PA14; conditions: polypropylene 96-well plate, BM2 glucose, 22 h, 37 °C, crystal violet, absorbance 595, at least two independent experiments
Method: as §2, §3

[38] = tested on: P. aeruginosa 2639 (Mucoid); conditions: polypropylene 96-well plate, BM2 glucose, 22 h, 37 °C, crystal violet, absorbance 595, at least two independent experiments
Method: as §2, §3

[39] = tested on: P. aeruginosa 3195 (Classic); conditions: polypropylene 96-well plate, BM2 glucose, 22 h, 37 °C, crystal violet, absorbance 595, at least two independent experiments
Method: as §2, §3

[40] = tested on: P. aeruginosa 1172 (Classic); conditions: polypropylene 96-well plate, BM2 glucose, 22 h, 37 °C, crystal violet, absorbance 595, at least two independent experiments
Method: as §2, §3

[41] = tested on: B. multivorans D2661 (Genomovar II); conditions: polypropylene 96-well plate, BM2 glucose, 22 h, 37 °C, crystal violet, absorbance 595, at least two independent experiments
Method: as §2, §3

VRLIVAVRIWRR-NH2 [Peptide 1018]
MIC [1]: >256 mg/L | MIC [2]: 16 mg/L | MIC [3]: >256 mg/L | MIC [4]: 16 mg/L | MIC [5]: 32 mg/L | MIC [6]: 64 mg/L | MIC [7]: 64 mg/L | MIC [8]: 16 mg/L | MIC [9]: 32 mg/L | MIC [10]: 16 mg/L | MIC [11]: 16 mg/L | MIC [12]: 16 mg/L | MIC [13]: 50 mg/L | MIC [14]: >256 mg/L | MIC [15]: 32 mg/L | MIC [16]: 128 mg/L | MIC [17]: 128 mg/L | MIC [18]: 16 mg/L | MIC [19]: 32 mg/L | MIC [20]: 16 mg/L | MIC [21]: 16 mg/L | MIC [22]: 16 mg/L | MIC [23]: >512 mg/L | Inhibition by 10 µg/mL 1018 (biofilm formation) [24]: 52% | Inhibition by 10 µg/mL 1018 (biofilm formation) [25]: 55% | Inhibition by 10 µg/mL 1018 (biofilm formation) [26]: 49% | Inhibition by 10 µg/mL 1018 (biofilm formation) [27]: 53% | Inhibition by 10 µg/mL 1018 (biofilm formation) [28]: 62% | Inhibition by 10 µg/mL 1018 (biofilm formation) [29]: 19% | Inhibition by 10 µg/mL 1018 (biofilm formation) [30]: 33% | Inhibition by 10 µg/mL 1018 (biofilm formation) [31]: ~ 50% and 51% | Inhibition by 10 µg/mL 1018 (biofilm formation) [32]: 41% | Inhibition by 10 µg/mL 1018 (biofilm formation) [33]: 61% | Inhibition by 10 µg/mL 1018 (biofilm formation) [34]: 44% | Inhibition by 10 µg/mL 1018 (biofilm formation) [35]: 59% | Inhibition by 10 µg/mL 1018 (biofilm formation) [36]: 58% | Inhibition by 10 µg/mL 1018 (biofilm formation) [37]: ~ 50% and 49% | Inhibition by 10 µg/mL 1018 (biofilm formation) [38]: 44% | Inhibition by 10 µg/mL 1018 (biofilm formation) [39]: 37% | Inhibition by 10 µg/mL 1018 (biofilm formation) [40]: 37% | Inhibition by 10 µg/mL 1018 (biofilm formation) [41]: 75%
